Patent US6156700A, “3-(1,2-Benzisothiazol- and isoxazol-5-yl)-2,4(1H,3H)-pyrimidinedione or thione and 3-(1,2-benzisothiazol- and isoxazol-5-yl)-4(3H)-pyrimidinone or thione herbicidal agents” (American Cyanmid Company, priority 1998, dated 2000)

Legend:
[1] = tested on: SAGPY Arrowhead (Pygmaea); test: Postemergence weed control, flooded paddy (Table IV); assay type: in vivo, Sagittaria pygmaea; set-up: scale not given here
Method in brief: (§1)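 Rating scale scores taken 3–4 weeks post-treatment; compounds dosed in flood water (~0.0313–0.500 kg/ha) onto weeds 3–5 cm tall and 1.5–2.5 leaf rice under 1.5–3 cm standing water.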

[2] = tested on: CYPSE Flatsedge; test: Preemergence weed control, flooded paddy (Table III); assay type: in vivo, Cyperus serotinus; set-up: scale not given here
Method in brief: (§2)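 Seeds or propagules sown in silt loam under 1.5 to 3 cm standing flood water; compound in 50/50 aqueous/acetone pipetted into the water at about 0.0313 to 0.500 kg/ha active ingredient. Greenhouse-held; herbicidal effect rated on a scale 3-4 weeks after treatment.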

[3] = tested on: MOOVA Monochoria; test: as above; assay type: in vivo, Monochoria vaginalis; set-up: scale not given here
Method in brief: as §2

[4] = tested on: Foxtail, Green, Setaria viridis; test: Postemergence herbicidal evaluation, SETVI; assay type: in vivo, (L.) Beau; conditions: 0.2500 kg/ha
Method in brief: (§3)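 Rates of about 0.0157–0.500 kg/ha were delivered through a 40 psi spray nozzle to seedlings grown around two weeks, using a 50/50 acetone/water vehicle with 0.5% TWEEN 20. A 0–9 visual score versus control followed 4–5 weeks later.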

[5] = tested on: MOOVA Monochoria; test: Postemergence weed control, flooded paddy (Table IV); assay type: in vivo, Monochoria vaginalis; set-up: scale not given here
Method in brief: as §1

[6] = tested on: Sicklepod, Cassia obtusifolia; test: Postemergence herbicidal evaluation, CASOB; assay type: in vivo, L.; conditions: 0.2500 kg/ha
Method in brief: as §3

[7] = tested on: Wheat, Winter, cv Riband, Triticum aestivum; test: Preemergence herbicidal evaluation, TRZAWR; assay type: in vivo; conditions: 0.2500 kg/ha
Method in brief: (§4)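 Greenhouse preemergence test with soil-surface spray of compound (aqueous acetone, approx. 0.0156–0.500 kg per hectare) just after planting. Injury was scored visually on a 0–9 scale at 4–5 weeks.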

[8] = tested on: Ragweed, Common, Ambrosia artemisifolia; test: Preemergence herbicidal evaluation, AMBEL; assay type: in vivo, L.; conditions: 0.2500 kg/ha
Method in brief: as §4

[9] = tested on: ORYSAT Rice, Tebonnet; test: Rice tolerance, flooded paddy (Table IV); assay type: in vivo, Oryza sativa; set-up: scale not given here; conditions: crop tolerance
Method in brief: as §1

[10] = tested on: Rice, Tebonnet, Oryza sativa; test: Preemergence herbicidal evaluation, ORYSAT; assay type: in vivo, (L.) Tebonnet; conditions: 0.2500 kg/ha
Method in brief: as §4

[11] = tested on: CYPIR Rice Flatsedge; test: Postemergence weed control, flooded paddy (Table IV); assay type: in vivo, Cyperus iria; set-up: scale not given here
Method in brief: as §1

[12] = tested on: Morningglory Spp., Ipomoea Spp.; test: Postemergence herbicidal evaluation, IPOSS; assay type: in vivo; conditions: 0.2500 kg/ha
Method in brief: as §3

[13] = tested on: Velvetleaf, Abutilon theophrasti; test: Postemergence herbicidal evaluation, ABUTH; assay type: in vivo, Medic.; conditions: 0.2500 kg/ha
Method in brief: as §3

[14] = tested on: Galium, Galium aparine; test: Postemergence herbicidal evaluation, GALAP; assay type: in vivo; conditions: 0.2500 kg/ha
Method in brief: as §3

[15] = tested on: CYPSE Flatsedge; test: Postemergence weed control, flooded paddy (Table IV); assay type: in vivo, Cyperus serotinus; set-up: scale not given here
Method in brief: as §1

[16] = tested on: ORYSAT Rice, Tebonnet; test: Tolerance of transplanted rice to post-transplant application (Table III); assay type: in vivo, Oryza sativa; set-up: scale not given here; conditions: crop tolerance
Method in brief: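 Two ten-day-old Tebonnet seedlings were transplanted into flooded silt loam, with water kept 1.5–3 cm above the soil. Three days after transplanting, the flooded surface was treated with compound in 50/50 aqueous/acetone at about 0.0313–0.500 kg/ha. Injury was rated in the greenhouse 3–4 weeks after treatment.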

Row | Compound | herbicidal effect rating ([1]; 0.1250 kg/ha) | herbicidal effect rating ([1]; 0.2500 kg/ha) | herbicidal effect rating ([1]; 0.5000 kg/ha) | herbicidal effect rating ([2]; 0.0625 kg/ha) | herbicidal effect rating ([2]; 0.1250 kg/ha) | herbicidal effect rating ([2]; 0.2500 kg/ha) | herbicidal effect rating ([2]; 0.5000 kg/ha) | herbicidal effect rating ([3]; 0.0625 kg/ha) | herbicidal effect rating ([3]; 0.1250 kg/ha) | herbicidal effect rating ([3]; 0.2500 kg/ha) | herbicidal effect rating ([3]; 0.5000 kg/ha) | herbicide rating (0-9) [4] | herbicidal effect rating ([5]; 0.1250 kg/ha) | herbicidal effect rating ([5]; 0.2500 kg/ha) | herbicidal effect rating ([5]; 0.5000 kg/ha) | herbicide rating (0-9) [6] | herbicide rating (0-9) [7] | herbicide rating (0-9) [8] | herbicidal effect rating ([9]; 0.1250 kg/ha) | herbicidal effect rating ([9]; 0.2500 kg/ha) | also measured
1 | COC(=O)C(C)Oc1cc(C)ccc1-c1nsc2ccc(-n3c(=O)cc(C(F)(F)F)n(C)c3=O)cc12 (stereo not shown) [Compound 9, Methyl 2-{{6-{5-[3,6-dihydro-3-methyl-4-(trifluoromethyl)-2,6-dioxo-1(2H)-pyrimidinyl]-1,2-benzisothiazol-3-yl}-m-tolyl}oxy}propionate] | 2.0 | 9.0 | 9.0 | 4.0 | 9.0 | 9.0 | 9.0 | 9.0 | 9.0 | 9.0 | 9.0 | 9.0 | 9.0 | 9.0 | 9.0 | 9.0 | 9.0 | 9.0 | 7.0 | 9.0 | herbicidal effect rating ([2]; 0.0313 kg/ha): 2.0; herbicidal effect rating ([3]; 0.0313 kg/ha): 9.0; herbicidal effect rating ([9]; 0.5000 kg/ha): 9.0; herbicide rating (0-9) [10]: 9.0; herbicidal effect rating ([11]; 0.1250 kg/ha): 9.0; herbicidal effect rating ([11]; 0.2500 kg/ha): 9.0; herbicidal effect rating ([11]; 0.5000 kg/ha): 9.0; herbicide rating (0-9) [12]: 9.0; herbicide rating (0-9) [13]: 9.0; herbicide rating (0-9) [14]: 8.0; herbicidal effect rating ([15]; 0.1250 kg/ha): 2.0; herbicidal effect rating ([15]; 0.2500 kg/ha): 7.0; herbicidal effect rating ([15]; 0.5000 kg/ha): 9.0; herbicidal effect rating ([16]; 0.0313 kg/ha): 6.0; herbicidal effect rating ([16]; 0.0625 kg/ha): 7.0; herbicidal effect rating ([16]; 0.1250 kg/ha): 7.0; herbicidal effect rating ([16]; 0.2500 kg/ha): 8.0; herbicidal effect rating ([16]; 0.5000 kg/ha): 9.0
2 | Cc1cc(O)c(-c2nsc3ccc(-n4c(=O)cc(C(F)(F)F)n(C)c4=O)cc23)cc1C [Compound 11, 3-[3-(6-Hydroxy-3,4-xylyl)-1,2-benzisothiazol-5-yl]-1-methyl-6-(trifluoromethyl)-2,4(1H,3H)-pyrimidinedione] | 0.0 | 4.0 | 7.0 | 2.0 | 2.0 | 2.0 | 7.0 | 9.0 | 9.0 | 9.0 | 9.0 | 8.0 | 9.0 | 9.0 | 9.0 | 7.0 | 4.0 | 9.0 | 0.0 | 1.0 | herbicidal effect rating ([9]; 0.5000 kg/ha): 1.0; herbicide rating (0-9) [10]: 0.0; herbicidal effect rating ([11]; 0.1250 kg/ha): 9.0; herbicidal effect rating ([11]; 0.2500 kg/ha): 9.0; herbicidal effect rating ([11]; 0.5000 kg/ha): 9.0; herbicide rating (0-9) [12]: 9.0; herbicide rating (0-9) [13]: 9.0; herbicide rating (0-9) [14]: 6.0; herbicidal effect rating ([15]; 0.1250 kg/ha): 0.0; herbicidal effect rating ([15]; 0.2500 kg/ha): 0.0; herbicidal effect rating ([15]; 0.5000 kg/ha): 0.0; herbicidal effect rating ([16]; 0.0625 kg/ha): 2.0; herbicidal effect rating ([16]; 0.1250 kg/ha): 2.0; herbicidal effect rating ([16]; 0.2500 kg/ha): 3.0; herbicidal effect rating ([16]; 0.5000 kg/ha): 3.0
3 | COC(=O)COc1cc(C)c(C)cc1-c1nsc2ccc(-n3c(=O)cc(C(F)(F)F)n(C)c3=O)cc12 [Compound 12, Methyl {{6-{5-[3,6-dihydro-3-methyl-4-(trifluoromethyl)-2,6-dioxo-1(2H)-pyrimidinyl]-1,2-benzisothiazol-3-yl}-3,4-xylyl}oxy}acetate] | 0.0 | 4.0 | 9.0 | 7.0 | 8.0 | 7.0 | 7.0 | 9.0 | 9.0 | 9.0 | 9.0 | 9.0 | 9.0 | 9.0 | 9.0 | 9.0 | 5.0 | 9.0 | 7.0 | 7.0 | herbicidal effect rating ([2]; 0.0313 kg/ha): 6.0; herbicidal effect rating ([3]; 0.0313 kg/ha): 9.0; herbicidal effect rating ([9]; 0.5000 kg/ha): 7.0; herbicide rating (0-9) [10]: 7.0; herbicidal effect rating ([11]; 0.1250 kg/ha): 9.0; herbicidal effect rating ([11]; 0.2500 kg/ha): 9.0; herbicidal effect rating ([11]; 0.5000 kg/ha): 9.0; herbicide rating (0-9) [12]: 9.0; herbicide rating (0-9) [13]: 9.0; herbicide rating (0-9) [14]: 9.0; herbicidal effect rating ([15]; 0.5000 kg/ha): 2.0; herbicidal effect rating ([16]; 0.0313 kg/ha): 4.0; herbicidal effect rating ([16]; 0.0625 kg/ha): 7.0; herbicidal effect rating ([16]; 0.1250 kg/ha): 7.0; herbicidal effect rating ([16]; 0.2500 kg/ha): 8.0; herbicidal effect rating ([16]; 0.5000 kg/ha): 9.0
